The subject of one assay is BA/F3 cell line. The assay is described as follows: BA/F3 viability assay. The note with it: Mus musculus, BaF3, 48 h, read-out: BA/F3 IC50.
The target in another assay is T1, human JAK2 (Homo sapiens, UniProt O60674).
T1 construct: catalytic domain (amino acids 808-1132; catalog number PV4210); GST; purchased Invitrogen PV4210
Nature of the assay: JAK2 inhibition assay (polyGT substrate / Ulight-JAK1 peptide). The format is biochemical. Conditions: recombinant human JAK2 catalytic domain; polyGT or Ulight-JAK1 peptide assay. Summed up: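 Radiometric: 0.025 mU JAK2 with 2.5 μg polyGT, 1 μM ATP plus ^33P-ATP in MOPS pH 7.5 buffer, 1% DMSO, 90 min at 30° C.; filter counting. Alternative TR-FRET format with Ulight-JAK1 peptide, 60 min at room temperature, Eu-anti-phosphotyrosine detection.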

In another assay the target is T2, human JAK3 (Homo sapiens, UniProt P52333).
T2 construct: catalytic domain (amino acids 781-1124; catalog number PV3855); purchased Invitrogen PV3855
Nature of the assay: JAK3 inhibition assay. The format is biochemical. Conditions: recombinant human JAK3 catalytic domain; polyGT substrate. An outline of the steps: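 Radiometric kinase assay: 0.5 ng JAK3 with 2.5 μg polyGT in Tris pH 7.5/MgCl2 buffer, 1 μM ATP plus 0.25 μCi 33P-γ-ATP, 1% DMSO, 45 min at 30 °C, stopped with phosphoric acid.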

Another assay has as its target T3, human TYK2 (Homo sapiens, UniProt P29597).
T3 construct: catalytic domain (amino acids 871-1187; catalog number 08-147); purchased Carna Biosciences 08-147
T3 sequence (P29597 871-1187): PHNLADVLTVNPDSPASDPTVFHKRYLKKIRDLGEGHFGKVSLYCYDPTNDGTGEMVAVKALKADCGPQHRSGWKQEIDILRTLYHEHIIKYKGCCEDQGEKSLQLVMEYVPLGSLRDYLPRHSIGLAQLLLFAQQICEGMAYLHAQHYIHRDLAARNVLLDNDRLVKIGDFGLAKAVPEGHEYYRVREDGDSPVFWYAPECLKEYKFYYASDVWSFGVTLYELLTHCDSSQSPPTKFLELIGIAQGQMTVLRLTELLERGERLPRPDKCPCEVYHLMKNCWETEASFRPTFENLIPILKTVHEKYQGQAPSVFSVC
The assay is described as follows: TYK2 inhibition assay. It is filed as biochemical. The note with it: recombinant human TYK2 catalytic domain, polyGT substrate. An outline of the steps: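 Radiometric kinase reaction run 90 min at 30 °C, stopped with phosphoric acid, washed and scintillation-counted.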

The target of another assay is T4, human JAK1 (Homo sapiens, UniProt P23458).
T4 construct: catalytic domain, amino acids 866-1154; catalog number PV4774; purchased Invitrogen PV4774
The assay is described as follows: JAK1 inhibition assay (polyGT substrate / Ulight-JAK1 peptide). It is filed as biochemical. Conditions: recombinant human JAK1 catalytic domain; polyGT or Ulight-JAK1 peptide assay. An outline of the steps:
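Two formats. PolyGT radiometric: 45 min at 30 °C, stopped with phosphoric acid, counted as cpm. Ulight-JAK1 peptide: 60 min at room temperature, stopped with Eu-anti-phosphotyrosine/EDTA, read as RFU. Percent inhibition normalised to vehicle and 10 μM staurosporine.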

The subject of a further assay is CTLL-2 cell line. Nature of the assay: CTLL2 viability assay. Conditions: Mus musculus, IL-2 dependent CTLL2 viability, 24 h, ATP-lite. It is filed as cell-based. The text has this:
The protocol describes the methods to analyse the activity of compounds on their ability to sustain the IL2-dependent viability of CTLL2.
Final DMSO concentration was 0.1%.

T2 sequence (P52333 781-1124): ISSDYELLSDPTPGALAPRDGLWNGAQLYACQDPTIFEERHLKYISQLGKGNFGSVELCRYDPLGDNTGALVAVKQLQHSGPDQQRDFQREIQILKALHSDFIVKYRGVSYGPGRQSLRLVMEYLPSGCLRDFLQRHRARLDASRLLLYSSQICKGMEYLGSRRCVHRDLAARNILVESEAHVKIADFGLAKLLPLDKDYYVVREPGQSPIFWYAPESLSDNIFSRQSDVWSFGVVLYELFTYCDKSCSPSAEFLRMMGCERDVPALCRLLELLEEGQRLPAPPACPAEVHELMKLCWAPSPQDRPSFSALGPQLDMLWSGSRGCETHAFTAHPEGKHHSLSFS
T4 sequence (P23458 866-1154): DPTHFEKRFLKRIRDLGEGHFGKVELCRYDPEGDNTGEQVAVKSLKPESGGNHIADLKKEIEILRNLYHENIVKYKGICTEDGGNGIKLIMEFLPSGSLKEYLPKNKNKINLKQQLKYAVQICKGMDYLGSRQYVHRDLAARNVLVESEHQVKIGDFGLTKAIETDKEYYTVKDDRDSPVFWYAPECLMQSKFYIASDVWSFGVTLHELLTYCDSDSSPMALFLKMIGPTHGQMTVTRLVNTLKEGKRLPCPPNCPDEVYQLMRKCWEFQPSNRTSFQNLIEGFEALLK
T1 sequence (O60674 808-1132): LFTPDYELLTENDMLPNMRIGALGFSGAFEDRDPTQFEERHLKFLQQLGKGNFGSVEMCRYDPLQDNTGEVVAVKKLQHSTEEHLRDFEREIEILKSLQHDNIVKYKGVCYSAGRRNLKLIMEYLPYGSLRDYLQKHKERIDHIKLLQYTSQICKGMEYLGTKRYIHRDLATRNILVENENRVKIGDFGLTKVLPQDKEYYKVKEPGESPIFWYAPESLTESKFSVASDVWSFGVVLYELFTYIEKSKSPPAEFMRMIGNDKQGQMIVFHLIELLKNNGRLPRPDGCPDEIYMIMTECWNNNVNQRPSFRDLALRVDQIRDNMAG

On to `CCc1cc(C2CN(S(=O)(=O)CCOC)C2)ccc1N(C)c1cc2c(cn1)ncn2C` [Compound 349, {2-Ethyl-4-[1-(2-methoxy-ethanesulfonyl)-azetidin-3-yl]-phenyl}-methyl-(1-methyl-1H-imidazo[4,5-c]pyridin-6-yl)-amine], for which the IC50 is 1000 to 5000 nM in the assay with BA/F3 cell line; 0.01 to 100 nM on human JAK2; 101 to 500 nM on human JAK3; 0.01 to 100 nM on human TYK2; 0.01 to 100 nM at human JAK1; greater than 1000 nM in the assay with CTLL-2 cell line.

Regarding `CCc1cc(C2CN(C(=O)COC)C2)ccc1N(C)c1cc2c(cn1)ncn2C` [Compound 350, 1-(3-{3-Ethyl-4-[methyl-(1-methyl-1H-imidazo[4,5-c]pyridin-6-yl)-amino]-phenyl}-azetidin-1-yl)-2-methoxy-ethanone], the IC50 was greater than 5000 nM in the assay on BA/F3 cell line; 101 to 500 nM on human JAK2; greater than 1000 nM on human JAK3; 101 to 500 nM on human TYK2; 0.01 to 100 nM at human JAK1; greater than 1000 nM in the assay with CTLL-2 cell line.

For the molecule `CCc1cc(C2CN(CC#N)C2)ccc1N(C)c1cc2c(cn1)ncn2C` [Compound 351, (3-{3-Ethyl-4-[methyl-(1-methyl-1H-imidazo[4,5-c]pyridin-6-yl)-amino]-phenyl}-azetidin-1-yl)-acetonitrile], the IC50 in the assay on BA/F3 cell line was greater than 5000 nM; at human JAK2 it was 0.01 to 100 nM; at human JAK3, 101 to 500 nM; on human TYK2, 101 to 500 nM; at human JAK1, 0.01 to 100 nM; with CTLL-2 cell line it was greater than 1000 nM.

As for `CCc1cc(C2CN(S(=O)(=O)CC(F)(F)F)C2)ccc1N(C)c1cc2c(cn1)ncn2C` [Compound 352, {2-Ethyl-4-[1-(2,2,2-trifluoro-ethanesulfonyl)-azetidin-3-yl]-phenyl}-methyl-(1-methyl-1H-imidazo[4,5-c]pyridin-6-yl)-amine], the IC50 with BA/F3 cell line was greater than 5000 nM; on human JAK2, 0.01 to 100 nM; at human JAK3, 0.01 to 100 nM; on human TYK2, 0.01 to 100 nM; on human JAK1, 0.01 to 100 nM; in the assay with CTLL-2 cell line it was greater than 1000 nM.

As for `CCc1cc(C2CN(S(=O)(=O)CC#N)C2)ccc1N(C)c1cc2c(cn1)ncn2C` [Compound 353, (3-{3-Ethyl-4-[methyl-(1-methyl-1H-imidazo[4,5-c]pyridin-6-yl)-amino]-phenyl}-azetidine-1-sulfonyl)-acetonitrile], the IC50 with BA/F3 cell line lay in the range of 1000 to 5000 nM; on human JAK2, 0.01 to 100 nM; on human JAK3, 0.01 to 100 nM; at human TYK2, 0.01 to 100 nM; at human JAK1, 0.01 to 100 nM; with CTLL-2 cell line it was 501 to 1000 nM.

Consider `CCc1cc(C2CN(S(=O)(=O)C(F)F)C2)ccc1N(C)c1cc2c(cn1)ncn2C` [Compound 354, {4-[1-(Difluoro-methanesulfonyl)-azetidin-3-yl]-2-ethyl-phenyl}-methyl-(1-methyl-1H-imidazo[4,5-c]pyridin-6-yl)-amine], for which the IC50 in the assay with BA/F3 cell line was 1000 to 5000 nM; on human JAK2 it was 0.01 to 100 nM; on human JAK3, 0.01 to 100 nM; on human TYK2, 0.01 to 100 nM; on human JAK1 it was 0.01 to 100 nM; in the assay on CTLL-2 cell line, 501 to 1000 nM.

In the case of `CCc1cc(CN(C)S(C)(=O)=O)cc(F)c1N(C)c1cc2c(cn1)ncn2C` [Compound 356, N-{3-Ethyl-5-fluoro-4-[methyl-(1-methyl-M-imidazo[4,5-c]pyridin-6-yl)-amino]-benzyl}-N-methyl-methanesulfonamide], the IC50 with BA/F3 cell line lay in the range of 1000 to 5000 nM; at human JAK2, 0.01 to 100 nM; on human JAK3 it was 0.01 to 100 nM; on human TYK2, 0.01 to 100 nM; on human JAK1, 0.01 to 100 nM; with CTLL-2 cell line, 501 to 1000 nM.

As for `CCc1cc(CN(CC#N)S(C)(=O)=O)cc(F)c1N(C)c1cc2c(cn1)ncn2C` [Compound 357, N-Cyanomethyl-N-{3-ethyl-5-fluoro-4-[methyl-(1-methyl-1H-imidazo[4,5-c]pyridin-6-yl)-amino]-benzyl}-methanesulfonamide], the IC50 with BA/F3 cell line was 1000 to 5000 nM; on human JAK2, 0.01 to 100 nM; on human JAK3 it was 0.01 to 100 nM; at human TYK2 it was 0.01 to 100 nM; on human JAK1, 0.01 to 100 nM; in the assay on CTLL-2 cell line, greater than 1000 nM.

Turning to `CN(c1cc2c(cn1)ncn2C)c1ccc(CN(C)S(C)(=O)=O)cc1F` [Compound 358, N-{3-Fluoro-4-[methyl-(1-methyl-1H-imidazo[4,5-c]pyridin-6-yl)-amino]-benzyl}-N-methyl-methanesulfonamide], the IC50 in the assay with BA/F3 cell line is greater than 5000 nM; on human JAK2, 0.01 to 100 nM; at human JAK3, 101 to 500 nM; at human TYK2, 101 to 500 nM; at human JAK1, 0.01 to 100 nM; with CTLL-2 cell line, greater than 1000 nM.

For `CN(c1cc2c(cn1)ncn2C)c1ccc(C2CN(C(=O)OC(C)(C)C)C2)cc1OC(F)F` [Compound 362, 3-{3-Difluoromethoxy-4-[methyl-(1-methyl-1H-imidazo[4,5-]pyridin-6-yl)-amino]-phenyl}-azetidine-1-carboxylic acid tert-butyl ester], the IC50 in the assay with BA/F3 cell line was greater than 5000 nM; at human JAK2 it was greater than 1000 nM; at human JAK3, greater than 1000 nM; at human TYK2 it was greater than 1000 nM; at human JAK1, 501 to 1000 nM; in the assay on CTLL-2 cell line, greater than 1000 nM.

As for `CN(c1cc2c(cn1)ncn2C)c1ccc(C2CN(CC(F)(F)F)C2)cc1OC(F)F` [Compound 364, {2-Difluoromethoxy-4-[1-(2,2,2-trifluoro-ethyl)-azetidin-3-yl]-phenyl}-methyl-(1-methyl-1H-imidazo[4,5-c]pyridin-6-yl)-amine], the IC50 with BA/F3 cell line is greater than 5000 nM; at human JAK2, 101 to 500 nM; on human JAK3, 101 to 500 nM; at human TYK2, greater than 1000 nM; at human JAK1, 0.01 to 100 nM; with CTLL-2 cell line, greater than 1000 nM.

Consider `CN(c1cc2c(cn1)ncn2C)c1ccc(C2CN(S(=O)(=O)N(C)C)C2)cc1OC(F)F` [Compound 369], for which the IC50 with BA/F3 cell line is 1000 to 5000 nM; on human JAK2 it was 101 to 500 nM; at human JAK3, 101 to 500 nM; at human TYK2, 101 to 500 nM; on human JAK1, 0.01 to 100 nM; with CTLL-2 cell line it was greater than 1000 nM.

As for `CN(c1cc2c(cn1)ncn2C)c1ccc(C2CN(S(=O)(=O)C(F)F)C2)cc1OC(F)F` [Compound 370, {4-[1-(Difluoro-methanesulfonyl)-azetidin-3-yl]-2-difluoromethoxy-henyl}-methyl-(1-methyl-1H-imidazo[4,5-c]pyridin-6-yl)-amine], the IC50 is 1000 to 5000 nM in the assay on BA/F3 cell line; 0.01 to 100 nM on human JAK2; 0.01 to 100 nM at human JAK3; 101 to 500 nM at human TYK2; 0.01 to 100 nM on human JAK1; greater than 1000 nM in the assay with CTLL-2 cell line.

For the molecule `CCc1cc(CNS(=O)(=O)N(C)C)ccc1N(C)c1cc2c(cn1)ncn2C` [Compound 375, Dimethyl amino-N-{3-Ethyl-4-[methyl-(1-methyl-1H-imidazo[4,5-c]pyridin-6-yl)-amino]-benzyl}-sulfonamide], the IC50 in the assay with BA/F3 cell line is 1000 to 5000 nM; on human JAK2 it was 0.01 to 100 nM; at human JAK3, 101 to 500 nM; at human TYK2, 101 to 500 nM; on human JAK1, 0.01 to 100 nM; in the assay with CTLL-2 cell line, greater than 1000 nM.

For the molecule `CCc1cc(CNS(=O)(=O)NC)ccc1N(C)c1cc2c(cn1)ncn2C` [Compound 376, Methyl amino-N-{3-Ethyl-4-[methyl-(1-methyl-1H-imidazo[4,5-c]pyridin-6-yl)-amino]-benzyl}-sulfonamide], the IC50 in the assay with BA/F3 cell line was 1000 to 5000 nM; on human JAK2, 0.01 to 100 nM; at human JAK3 it was 101 to 500 nM; at human TYK2, 101 to 500 nM; on human JAK1 it was 0.01 to 100 nM; with CTLL-2 cell line, greater than 1000 nM.

Consider `CCc1cc(CNC(=O)C2CCC(F)(F)CC2)ccc1N(C)c1cc2c(cn1)ncn2C` [Compound 377, 4,4-Difluoro-cyclohexanecarboxylic acid 3-ethyl-4-[methyl-(1-methyl-1H-imidazo[4,5-c]pyridin-6-yl)-amino]-benzylamide], for which the IC50 is greater than 5000 nM in the assay with BA/F3 cell line; greater than 1000 nM on human JAK2; greater than 1000 nM at human JAK3; greater than 1000 nM at human TYK2; 0.01 to 100 nM at human JAK1; greater than 1000 nM in the assay on CTLL-2 cell line.

These data come from US20130217664A1, “NOVEL COMPOUNDS USEFUL FOR THE TREATMENT OF DEGENERATIVE AND INFLAMMATORY DISEASES” (priority 2012, published 2013).
